According to ChEMBL document CHEMBL1201862, “PubChem BioAssay data set” (2004):
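In this assay, cells in 96-well plates receive the compound at five concentrations for 48 hours. Endpoints are linearly interpolated between the surrounding concentrations. The concentration for 50% growth inhibition is given as GI50.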 Activity calls are given as the source filed them. Cut-off read from the data, not from the text of the source: active = GI50 up to about 1.1 µM and inactive = higher.

How the values were obtained:
Test in all cases: NCI tumour cell line growth inhibition, 48 h
[1] = test system: 786-0
[2] = test system: A498
[3] = test system: A549
[4] = test system: ACHN
[5] = test system: CAKI-1
[6] = test system: CCRF-CEM
[7] = test system: COLO 205
[8] = test system: DU-145
[9] = test system: EKVX
[10] = test system: HCC 2998
[11] = test system: HCT-116
[12] = test system: HCT-15
[13] = test system: HL-60
[14] = test system: HOP-62
[15] = test system: HOP-92
[16] = test system: HT-29
[17] = test system: Hs-578T
[18] = test system: IGROV-1
[19] = test system: K562
[20] = test system: KM12
[21] = test system: LOX IMVI
[22] = test system: M14
[23] = test system: MCF7
[24] = test system: MDA-MB-231
[25] = test system: MDA-MB-435
[26] = test system: MDA-N
[27] = test system: MOLT-4
[28] = test system: Malme-3M
[29] = test system: NCI-H226
[30] = test system: NCI-H23
[31] = test system: NCI-H460
[32] = test system: NCI-H522
[33] = test system: NCI/ADR-RES
[34] = test system: OVCAR-3
[35] = test system: OVCAR-4
[36] = test system: OVCAR-5
[37] = test system: OVCAR-8
[38] = test system: PC-3
[39] = test system: RPMI-8226
[40] = test system: RXF 393
[41] = test system: SF-268
[42] = test system: SF-295
[43] = test system: SF-539
[44] = test system: SK-MEL-28
[45] = test system: SK-MEL-2
[46] = test system: SK-MEL-5
[47] = test system: SK-OV-3
[48] = test system: SN12C
[49] = test system: SNB-19
[50] = test system: SNB-75
[51] = test system: SR
[52] = test system: SW-620
[53] = test system: T47D
[54] = test system: TK-10
[55] = test system: U-251
[56] = test system: UACC-257
[57] = test system: UACC-62
[58] = test system: UO-31

Compound: C/N=C/N(C)c1c2ccccc2nc2ccccc12
- GI50 [1]: > 100 µM (inactive)
- GI50 [2]: > 100 µM (inactive)
- GI50 [3]: > 100 µM (inactive)
- GI50 [4]: > 100 µM (inactive)
- GI50 [5]: > 100 µM (inactive)
- GI50 [6]: > 100 µM (inactive)
- GI50 [7]: > 100 µM (inactive)
- GI50 [8]: > 100 µM (inactive)
- GI50 [9]: > 100 µM (inactive)
- GI50 [10]: > 100 µM (inactive)
- GI50 [11]: > 100 µM (inactive)
- GI50 [12]: > 100 µM
- GI50 [13]: > 100 µM (inactive)
- GI50 [14]: > 100 µM (inactive)
- GI50 [15]: 64.7 µM (inactive)
- GI50 [16]: > 100 µM (inactive)
- GI50 [17]: > 100 µM (inactive)
- GI50 [18]: > 100 µM (inactive)
- GI50 [19]: > 100 µM (inactive)
- GI50 [20]: > 100 µM (inactive)
- GI50 [21]: > 100 µM (inactive)
- GI50 [22]: > 100 µM (inactive)
- GI50 [23]: > 100 µM (inactive)
- GI50 [24]: > 100 µM (inactive)
- GI50 [25]: > 100 µM (inactive)
- GI50 [26]: > 100 µM (inactive)
- GI50 [27]: > 100 µM (inactive)
- GI50 [28]: > 100 µM (inactive)
- GI50 [29]: > 100 µM (inactive)
- GI50 [30]: > 100 µM (inactive)
- GI50 [31]: > 100 µM (inactive)
- GI50 [32]: > 100 µM (inactive)
- GI50 [33]: > 100 µM (inactive)
- GI50 [34]: > 100 µM (inactive)
- GI50 [35]: > 100 µM (inactive)
- GI50 [36]: > 100 µM (inactive)
- GI50 [37]: > 100 µM (inactive)
- GI50 [38]: > 100 µM (inactive)
- GI50 [39]: > 100 µM (inactive)
- GI50 [40]: > 100 µM (inactive)
- GI50 [41]: > 100 µM (inactive)
- GI50 [42]: > 100 µM (inactive)
- GI50 [43]: > 100 µM (inactive)
- GI50 [44]: > 100 µM (inactive)
- GI50 [45]: > 100 µM (inactive)
- GI50 [46]: > 100 µM (inactive)
- GI50 [47]: > 100 µM (inactive)
- GI50 [48]: > 100 µM (inactive)
- GI50 [49]: > 100 µM (inactive)
- GI50 [50]: 90.6 µM (inactive)
- GI50 [51]: > 100 µM (inactive)
- GI50 [52]: > 100 µM (inactive)
- GI50 [53]: 85.7 µM (inactive)
- GI50 [54]: > 100 µM (inactive)
- GI50 [55]: > 100 µM (inactive)
- GI50 [56]: > 100 µM (inactive)
- GI50 [57]: > 100 µM (inactive)
- GI50 [58]: 11.6 µM (inactive)
